Structures are written as SMILES. pKi: −log10 of the molar value. Where only a bound is given, the exact number is not on record here.

The target in the experiment is Cathepsin S (Homo sapiens, UniProt P25774). The experiment is described as follows: Cathepsin S inhibition, fluorogenic peptide substrate kinetic assay. Type of experiment: biochemical. The settings on record: Table II; Cathepsin S inhibition constant, pH5.5; read-out: Ki Cat. S. The source says: “Inhibition constant”, Ki, is the dissociation constant of the enzyme-inhibitor complex, or the reciprocal of the binding affinity of the inhibitor to the enzyme. […] The inhibited rates are then fit by nonlinear regression to the following equation: [formula]
where vo is the initial rate of substrate processing in the absence of inhibitor, v; is the initial rate of substrate processing at a concentration [I] of inhibitor, Km is the steady state Michaelis constant (Fersht, A. Structure and Mechanism in Protein Science. New York, W.H. Freeman and Company, 1999), and [S] is the concentration of competitive substrate.
The assumption being made for the classical inhibition described above is that the free inhibitor concentration is equal to the total inhibitor concentration.
The inhibition constant, Ki, can be determined from the apparent inhibition constant, Ki^app, for competitive inhibitors by using the following relationship: [formula]
The optimal substrate for cathepsin S, acetyl-histidine-proline-valine-lysine-amino carbamoyl coumarin, was identified from screening a combinatorial library of fluorogenic peptide substrates (Harris, J. L., B. J. Backes, et al., Proc Natl Acad Sci USA 2000, 97(14), 7754-9). Kinetic measurements are performed in a total reaction volume of 30 μl in 384-well microtiter plates. […] The reactions are initiated by adding the substrate, acetyl-histidine-proline-valine-lysine-amino carbamoyl coumarin, to a final concentration of 50 μM. The rate of substrate hydrolysis is measured by monitoring the increase in fluorescence at an excitation wavelength of 380 nm and an emission wavelength of 450 nm that results from cleavage of the aniline bond in the substrate by the enzyme. The apparent inhibition constants for the compounds are determined from the enzyme progress curves (Kuzmic, P., K. C. Elrod, et al., Anal Biochem 2000, 286(1), 45-50) and are then used to calculate the inhibition constants for competitive inhibitors.

Cathepsin S, sequence (P25774 115-331, species assumed): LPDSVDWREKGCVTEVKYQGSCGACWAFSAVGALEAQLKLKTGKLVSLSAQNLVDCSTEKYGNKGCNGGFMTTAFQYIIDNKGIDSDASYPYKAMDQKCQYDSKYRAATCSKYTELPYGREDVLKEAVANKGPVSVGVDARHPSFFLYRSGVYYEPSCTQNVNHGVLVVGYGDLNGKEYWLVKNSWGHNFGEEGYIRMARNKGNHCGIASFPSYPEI

As to `C[C@@H](CNc1ccc(OC(F)(F)F)cc1)NC(=O)[C@H](CC1CCCCC1)NC(=O)[C@@H]1CCCO1` [Compound 29, Tetrahydrofuran-2-(S)-carboxylic acid {2-cyclohexyl-1-(S)-[1-(S)-methyl-2-(4-trifluoromethoxy-phenylamino)-ethylcarbamoyl]-ethyl}-amide], the pKi (in general, the Ki on a negative log10 scale, so that one unit is a factor of ten) is above 7.00. Under `Cc1cccc(C(=O)N[C@@H](CC(C)C)C(=O)N[C@@H](CCNC(N)=O)CN2CCc3cc(F)ccc32)c1` [Compound 45, (S,S)-N-{1-[1-(5-Fluoro-2,3-dihydro-indol-1-ylmethyl)-3-ureido-propylcarbamoyl]-3-methyl-butyl}-3-methyl-benzamide] stands above 6.00. On to `C[C@@H](CNc1cccc(S(C)(=O)=O)c1)NC(=O)[C@H](CC1CCCCC1)NC(=O)c1ccc(-c2ccc(F)cc2)o1` [Compound 106, 5-(4-Fluoro-phenyl)-furan-2-carboxylic acid {2-cyclohexyl-1-(S)-[2-(3-methanesulfonyl-phenylamino)-1-(S)-methyl-ethylcarbamoyl]-ethyl}-amide], for which the pKi is above 7.00.

Regarding `C[C@@H](CNc1ccc(OC(F)(F)F)cc1)NC(=O)[C@H](CC1CCCCC1)NC(=O)O[C@@H]1CCN(C(=O)OC(C)(C)C)C1` [Compound 185, 3-(R)-{2-Cyclohexyl-1-(S)-[1-(S)-methyl-2-(4-trifluoromethoxy-phenylamino)-ethylcarbamoyl]-ethylcarbamoyloxy}-pyrrolidine-1-carboxylic acid tert-butyl ester], the pKi is above 6.00. The value for `COCCC(=O)N[C@@H](CC1CCCCC1)C(=O)N[C@@H](C)CNc1ccc(OC(F)(F)F)cc1` [Compound 123, 3-Cyclohexyl-2-(S)-(3-methoxy-propionylamino)-N-[1-(S)-methyl-2-(4-trifluoromethoxy-phenylamino)-ethyl]-propionamide] was above 7.00; that for `CC(=O)Nc1cccc(NC[C@H](C)NC(=O)[C@H](CC2CCCCC2)NC(=O)c2ccc(-c3cccc(F)c3)o2)c1` [Compound 134, 5-(3-Fluoro-phenyl)-furan-2-carboxylic acid {1-(S)-[2-(3-acetylamino-phenylamino)-1-(S)-methyl-ethylcarbamoyl]-2-cyclohexyl-ethyl}-amide] was above 7.00; that for `C[C@@H](CN1c2ccc(F)cc2CC1(C)C)NC(=O)[C@H](CC1CCCCC1)NC(=O)C1CCOC1` (stereo partly drawn) [Compound 140, Tetrahydrofuran-3-carboxylic acid {2-cyclohexyl-1-(S)-[2-(5-fluoro-2,2-dimethyl-2,3-dihydro-indol-1-yl)-1-(S)-methyl-ethylcarbamoyl]-ethyl}-amide] was above 7.00. As to `O=C(Nc1ccc(-c2ccccc2)cc1)N[C@@H](CC1CCCCC1)C(=O)NCCN1CCc2cc(F)ccc21` [Compound 225, (S)-2-(3-Biphenyl-4-yl-ureido)-3-cyclohexyl-N-[2-(5-fluoro-2,3-dihydro-indol-1-yl)-ethyl]-propionamide], the pKi is above 6.00. Regarding `C[C@@H](CNc1ccc(OC(F)F)cc1)NC(=O)[C@H](CC1CCCCC1)NC(=O)c1ccc(-c2cccc(F)c2)o1` [Compound 84, 5-(3-Fluoro-phenyl)-furan-2-carboxylic acid {2-cyclohexyl-1-(S)-[2-(4-difluoromethoxy-phenylamino)-1-(S)-methyl-ethylcarbamoyl]-ethyl}-amide], the pKi was above 7.00. Under `O=C(NC(C(=O)NC(CO)CN1CCc2cc(F)ccc21)c1ccc(Cl)cc1Cl)c1ccco1` [Compound 209, N-(S)-((3-(5-fluoroindolin-1-yl)-1-hydroxypropan-2-(R)-ylcarbamoyl)(2,4-dichlorophenyl)methyl)furan-2-carboxamide] stands above 7.00.

Regarding `C[C@@H](CN1CCc2cc(F)ccc21)NC(=O)[C@H](CC(C)(C)C)NC(=O)OCc1ccccc1` [Compound 176, {1-(S)-[2-(5-Fluoro-2,3-dihydro-indol-1-yl)-1-(S)-methyl-ethylcarbamoyl]-3,3-dimethyl-butyl}-carbamic acid benzyl ester], the pKi is above 7.00.
